Test results as given in PMC5458211, “Mitochondrial VDAC1-based peptides: Attacking oncogenic properties in glioblastoma” (Oncotarget, 2017).

Assays:
SH-SY5Y cells = assay: Apoptosis by acridine orange/ethidium bromide staining, SH-SY5Y; assay type: cell-based, human; settings: 3 h, Suppl Fig 2B
Protocol: […] The cells were then trypsinized, centrifuged (1500xg, 5 min), washed with PBS and analyzed for cell death using propidium iodide (PI) staining and flow cytometer (Beckton-Dickinson, San Jose, CA) and BD CellQuest Pro software. Apoptotic cell death was also analyzed by PI and annexin V-FITC staining, and by acridine orange and ethidium bromide staining and light microscopy (Olympus LX2-KSP).
Supplementary Figure 2: Mode of action of VDAC1-based peptides. […]
detachment. SH-SY5Y cells (4×10^4/ml) were grown on cover slips, transfected with plasmid pEGFP-HK-I and after 24 h, were incubated […]
The final DMSO concentration in control and peptide-treated cells was 0.07%. Fixed cells were stained with DAPI and visualized by confocal microscopy (Olympus 1X81). Arrows indicate cells […]
showing diffusion of HK-I-GFP. B-C. […] B. SH-SY5Y cells were treated with the indicated […]
Arrows and arrowheads indicate cells with membrane blebbing (early apoptotic state) and late apoptotic states, respectively. C. Morphological analysis of apoptosis by electron microscopy (EM). For transmission EM, U-87MG cells (1.6 x10^6 /ml) were incubated with the indicated concentrations of D-ΔN-Ter-Antp peptide or DMSO (0.3% final concentration) for 6 h in serum-free medium. […]

[1] = test system: U-87MG intracranial xenograft tumors; assay: U-87MG intracranial-orthotopic xenograft, tumor volume by MRI; assay type: in vivo, human U-87MG in nude mice
Protocol: B. U-87MG cells (2×10^5) were incubated for 12 h with the indicated concentrations of DMSO, Retro-Tf-D-LP4 peptide (Pep), or Retro-Tf-D-LP4 encapsulated in PLGA nanoparticles (PLGA-Pep). Samples of Retro-Tf-D-LP4 encapsulated in PLGA nanoparticles were centrifuged (15000g, 5 min) to separate the supernatant (Sup), containing free peptide, and the pellet, containing encapsulated Retro-Tf-D-LP4 peptide. Cell death was analyzed by PI staining and FACS analysis. C. Graphical representation of the orthotopic animal experiment. D. MRI imaging of brains 29 days post-intravenal treatment start with DMSO (1.05%), Retro-Tf-D-LP4 (10 mg/kg) encapsulated in PLGA nanoparticles or Tf-D-Retro-LP4 peptide (10 mg/Kg), as described in Materials and Methods available online in Supplemental information. E. Calculated tumor volumes after 20 (dark grey bars) and 29 (light grey bars) days post-treatment start. Results = mean ± SE (n = 6) (* p<0.05, *** p<0.001). F. Kaplan-Meier survival curves showing statistically significant differences in survival curves between the PBS/DMSO and Retro-Tf-D-LP4 treated mice. Cumulative Kaplan-Meier survival curves of control mice (red line), Retro-Tf-D-LP4 peptide (10mg/kg) encapsulated in PGLA nanoparticles (black line, ** p=0.006) or Retro-Tf-D-LP4 peptide (10 mg/kg, pink line, *** p=0.0003). The arrow indicates the end of the peptide treatment (day 46).
For the intracranial-orthotopic xenograft mouse model, U-87MG cells (8×10^4) were engrafted into a nude mouse brain using a stereotactic device. Forty eight hours after surgery, mice were randomized into three groups (6 animals/group) and treated every third day with DMSO (1.44%), Retro-Tf-D-LP4 (10mg/Kg) or Retro-Tf-D-LP4 (10mg/Kg) encapsulated by PLGA. Mice were subjected to MRI, sacrificed; brains were excised and processed for IHC. Tumor volume was analyzed using VivoQuant 2.10 software.
PLGA encapsulation of the VDAC1-based minutes using an UltraMicroPump III (World Precision peptide Retro-Tf-D-LP4 Instruments, Sarasota, FL). After infusion, the needle was left in place for 1 minute before slow withdrawal. The burr […]
100% DMSO and then diluted 20-fold with sterile DDW into three groups (6 animals/group) and treated every to reach a concentration of 25 mg/ml in a final DMSO third day with DMSO (1.44%), Retro-Tf-D-LP4 (10 concentration of 5%. PLGA (50 mg) was dissolved in mg/kg) or Retro-Tf-D-LP4 (10 mg/kg) encapsulated by acetone (1 ml). […] Tumor volume was analyzed using VivoQuant 2.10 10 ml of aqueous solution containing 1% PVA (w/v). […]
of the experiments, the mice were sacrificed, tumors were IHC of tumor tissue sections excised and ex vivo weight was determined. […]

Row | Compound | apoptosis induction, SH-SY5Y (SH-SY5Y cells) | decrease in orthotopic xenograft tumor volume, day 20 ([1]; 10 mg/kg i.v., every third day, 20 days after start of treatment, MRI, n = 6) [%] | decrease in orthotopic xenograft tumor volume, day 29 ([1]; 10 mg/kg i.v., every third day, 29 days after start of treatment, MRI, n = 6) [%] | free vs PLGA-encapsulated peptide, effectiveness ([1]; intracranial model, tumor size and survival) | reduction of tumor volume, maximum (Discussion) ([1]; intracranial-orthotopic xenograft, i.v., free peptide)
1 | CC[C@H](C)[C@H](NC(=O)[C@H](C)NC(=O)[C@@H](N)Cc1c[nH]cn1)C(=O)N[C@@H](Cc1ccc(O)cc1)C(=O)N1CCC[C@H]1C(=O)N[C@@H](CCCNC(=N)N)C(=O)N[C@@H](Cc1c[nH]cn1)C(=O)N[C@@H](CO)C(=O)N[C@@H](Cc1c[nH]c2ccccc12)C(=O)N[C@H](C(=O)N[C@@H](Cc1c[nH]c2ccccc12)C(=O)N[C@@H](CCC(=O)O)C(=O)N[C@H](CCCCN)C(=O)N[C@H](CCCCN)C(=O)N[C@H](CC(C)C)C(=O)N[C@H](CCC(=O)O)C(=O)N[C@@H](C(=O)N[C@H](C)C(=O)N[C@@H](C(=O)N[C@H](CC(N)=O)C(=O)N[C@H](CC(C)C)C(=O)N[C@H](C)C(=O)N[C@H](Cc1c[nH]c2ccccc12)C(=O)N[C@@H](C(=O)N[C@H](C)C(=O)NCC(=O)N[C@H](CC(N)=O)C(=O)N[C@H](CO)C(=O)N[C@H](CC(N)=O)C(=O)N[C@@H](CCCCN)C(=O)N[C@@H](Cc1c[nH]c2ccccc12)C(=O)N[C@H](C(=O)N[C@@H](Cc1c[nH]c2ccccc12)C(=O)N[C@@H](CCCCN)C(=O)O)[C@@H](C)O)[C@H](C)O)C(C)C)[C@H](C)O)[C@@H](C)O [Tf-D-LP4] | induce apoptosis |  |  |  | 
2 | CC[C@H](C)[C@H](NC(=O)[C@H](Cc1ccc(O)cc1)NC(=O)[C@@H]1CCCN1C(=O)[C@H](CCCNC(=N)N)NC(=O)[C@H](Cc1c[nH]cn1)NC(=O)[C@H](CO)NC(=O)[C@H](Cc1c[nH]c2ccccc12)NC(=O)[C@@H](NC(=O)[C@H](Cc1c[nH]c2ccccc12)NC(=O)[C@H](CCC(=O)O)NC(=O)[C@@H](CCCCN)NC(=O)[C@@H](CCCCN)NC(=O)[C@@H](CC(C)C)NC(=O)[C@@H](CCC(=O)O)NC(=O)[C@H](NC(=O)[C@@H](C)NC(=O)[C@H](NC(=O)[C@@H](CC(N)=O)NC(=O)[C@@H](CC(C)C)NC(=O)[C@@H](C)NC(=O)[C@@H](Cc1c[nH]c2ccccc12)NC(=O)[C@H](NC(=O)[C@@H](C)NC(=O)CNC(=O)[C@@H](CC(N)=O)NC(=O)[C@@H](CO)NC(=O)[C@@H](CC(N)=O)NC(=O)[C@H](CCCCN)NC(=O)[C@H](Cc1c[nH]c2ccccc12)NC(=O)[C@@H](NC(=O)[C@H](Cc1c[nH]c2ccccc12)NC(=O)[C@@H](N)CCCCN)[C@@H](C)O)[C@H](C)O)C(C)C)[C@H](C)O)[C@@H](C)O)C(=O)N[C@@H](C)C(=O)N[C@@H](Cc1c[nH]cn1)C(=O)O [Retro-Tf-D-LP4] |  | 60 | 90 | more effective both in reducing tumor size and in prolonging mice survival | up to 90%
